# Data as given in patent US20260306527A1, “PRMT INHIBITOR COMPOUNDS AND THE USES THEREOF” (Purdue Research Foundation, priority 2023, published 2026).
# Tests used:
# Type in all cases: biochemical
# [1] = molecular target: T1, PRMT8 (Homo sapiens, UniProt Q9NR22); assay: selectivity of YD1113/YD1290 on PRMT panel, PRMT8
# Experimental: (§1) The selectivity of compounds YD1113 and YD1290 on PRMTs were performed by Reaction Biology Corp.
# (§2) Next, the selectivity of YD1113 was investigated on a panel of PRMTs at 10 μM.
# (§3) After validating the benzyl urea moiety as an unconventional homocysteine mimic of SAH for PRMTs, it was hypothesized that incorporating the benzyl urea moiety into the original pan PRMT inhibitor II757 would build a potent bisubstrate inhibitor. […] To enable a stable tri-substitution, the sulfur atom with a nitrogen atom was replaced. YD1290 was synthesized following the reported methods 9, 15 and tested in a radioactivity assay for PRMTs (FIG. 6b).
# [2] = molecular target: T2, PRMT6 (Homo sapiens, UniProt Q96LA8); assay: selectivity of YD1113/YD1290 on PRMT panel, PRMT6
# T2 sequence (Q96LA8 whole entry, species assumed): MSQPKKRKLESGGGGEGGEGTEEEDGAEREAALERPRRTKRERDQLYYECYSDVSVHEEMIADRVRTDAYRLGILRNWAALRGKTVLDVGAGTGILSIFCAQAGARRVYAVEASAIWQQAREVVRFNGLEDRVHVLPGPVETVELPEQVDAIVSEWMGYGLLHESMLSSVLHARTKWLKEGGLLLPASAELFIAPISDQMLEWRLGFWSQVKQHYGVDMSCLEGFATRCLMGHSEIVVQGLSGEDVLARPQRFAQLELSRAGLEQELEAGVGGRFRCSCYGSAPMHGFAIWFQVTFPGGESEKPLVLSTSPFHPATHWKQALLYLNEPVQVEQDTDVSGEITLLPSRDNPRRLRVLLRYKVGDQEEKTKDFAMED
# Experimental: as §1, §2, §3
# [3] = test system: PRMT3; assay: selectivity of YD1113/YD1290 on PRMT panel, PRMT3
# Experimental: as §1, §2, §3
# [4] = molecular target: T3, PRMT1 (Homo sapiens, UniProt Q99873); assay: selectivity of YD1113/YD1290 on PRMT panel, PRMT1
# T3 construct: made in house
# T3 sequence (Q99873 whole entry, species assumed): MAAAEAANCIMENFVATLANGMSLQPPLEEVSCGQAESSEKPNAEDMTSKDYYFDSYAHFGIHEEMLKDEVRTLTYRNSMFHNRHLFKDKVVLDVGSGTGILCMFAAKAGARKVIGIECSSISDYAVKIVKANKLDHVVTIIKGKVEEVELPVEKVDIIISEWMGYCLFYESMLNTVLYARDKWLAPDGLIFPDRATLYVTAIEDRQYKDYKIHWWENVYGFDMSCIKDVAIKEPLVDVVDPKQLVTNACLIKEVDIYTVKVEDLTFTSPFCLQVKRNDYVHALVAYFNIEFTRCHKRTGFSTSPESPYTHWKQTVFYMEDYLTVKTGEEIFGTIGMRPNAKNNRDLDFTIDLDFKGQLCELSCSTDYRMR
# Experimental: as §1, §2, §3
# [5] = molecular target: T3, PRMT1; assay: SAHH-coupled fluorescence assay, inhibition of PRMT1
# Procedure, shortened: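 PRMT1 (0.1 μM) was run with 10 μM AdoMet, 5 μM SAHH and 10 μM ThioGlo4 in 2.5 mM HEPES pH 7.0, 25 mM NaCl, 25 μM EDTA, 50 μM TCEP and 0.01% Triton X-100. Fluorescence (ex 400/em 465 nm) was monitored for 15 min. Assays were done in duplicate.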
# [6] = test system: PRMT4; assay: selectivity of YD1113/YD1290 on PRMT panel, PRMT4
# Experimental: as §1, §2, §3
# [7] = molecular target: PRMT5 (Homo sapiens, UniProt O14744); assay: selectivity of YD1113 on PRMT panel, PRMT5; conditions: read-out: IC50 (nM) | PRMT5
# Chain of PRMT5 (O14744 whole entry, species assumed): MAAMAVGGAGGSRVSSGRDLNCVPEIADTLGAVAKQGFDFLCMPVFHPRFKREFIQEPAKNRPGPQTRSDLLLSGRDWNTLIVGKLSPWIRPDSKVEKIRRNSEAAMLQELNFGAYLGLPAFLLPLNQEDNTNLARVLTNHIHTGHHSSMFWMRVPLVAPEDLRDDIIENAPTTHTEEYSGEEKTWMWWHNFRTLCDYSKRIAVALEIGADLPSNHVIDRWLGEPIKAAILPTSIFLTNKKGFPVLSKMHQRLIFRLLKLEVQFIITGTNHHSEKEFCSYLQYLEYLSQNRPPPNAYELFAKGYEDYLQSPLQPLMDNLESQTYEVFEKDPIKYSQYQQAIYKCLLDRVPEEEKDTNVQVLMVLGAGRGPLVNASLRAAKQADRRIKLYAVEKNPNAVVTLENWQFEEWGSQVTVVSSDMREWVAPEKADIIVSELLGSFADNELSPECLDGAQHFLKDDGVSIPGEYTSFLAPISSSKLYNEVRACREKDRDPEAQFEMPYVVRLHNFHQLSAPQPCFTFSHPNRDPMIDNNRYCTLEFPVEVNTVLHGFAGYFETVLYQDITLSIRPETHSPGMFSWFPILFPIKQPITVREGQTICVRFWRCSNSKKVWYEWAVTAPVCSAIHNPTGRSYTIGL
# Chain of PRMT5 (Q9BQA1 whole entry partner, species assumed): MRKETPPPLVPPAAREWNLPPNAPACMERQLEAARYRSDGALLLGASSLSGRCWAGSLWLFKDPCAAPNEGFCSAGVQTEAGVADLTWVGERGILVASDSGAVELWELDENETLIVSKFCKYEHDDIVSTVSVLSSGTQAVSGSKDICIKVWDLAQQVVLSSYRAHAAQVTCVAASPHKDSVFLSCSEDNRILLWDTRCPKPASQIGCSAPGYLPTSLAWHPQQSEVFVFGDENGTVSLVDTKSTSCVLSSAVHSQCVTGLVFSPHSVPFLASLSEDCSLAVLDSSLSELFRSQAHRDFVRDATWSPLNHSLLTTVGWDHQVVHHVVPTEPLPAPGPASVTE
# Experimental: as §1, §2
# [8] = test system: PRMT7; assay: selectivity of YD1113 on PRMT panel, PRMT7
# Experimental: as §1, §2
# [9] = molecular target: PRMT3 (Homo sapiens, UniProt O60678); assay: SAHH-coupled fluorescence assay, inhibition of PRMT3; set-up: PRMT3 (residues 211-531) was cloned into the pET28a-MHL expression vector; tag of the pET28a-MHL vector (not described); made in house; host or cells: Escherichia coli BL21(DE3)
# Chain of PRMT3 (Homo sapiens, UniProt O60678) (O60678 211-531): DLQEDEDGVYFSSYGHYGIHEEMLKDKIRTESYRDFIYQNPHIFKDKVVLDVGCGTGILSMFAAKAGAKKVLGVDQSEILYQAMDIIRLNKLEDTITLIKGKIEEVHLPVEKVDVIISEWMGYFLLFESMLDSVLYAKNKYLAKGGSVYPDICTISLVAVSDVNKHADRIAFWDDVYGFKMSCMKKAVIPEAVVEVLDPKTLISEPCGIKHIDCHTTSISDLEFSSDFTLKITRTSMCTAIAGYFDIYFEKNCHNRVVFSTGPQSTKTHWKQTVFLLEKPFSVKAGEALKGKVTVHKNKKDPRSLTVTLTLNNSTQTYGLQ
# Procedure, shortened: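 Coupled SAHH/ThioGlo4 fluorescence read-out (ex 380 nm, em 505 nm) of PRMT3 (0.25 μM) methylation with 30 μM AdoMet and 5 μM SAHH. Buffer was 20 mM Tris pH 7.5 with 0.01% Triton X-100. Run in duplicate.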
# [10] = molecular target: T1, PRMT8; assay: radioactive assay (Reaction Biology Corp.), inhibition of PRMT8
# Experimental: (§4) Next, the inhibition activity of the library was investigated for five PRMT members from type I PRMTs.
# (§5) The PRMT 4, 6 and 8 methylation assays were performed by Reaction Biology corp.
# [11] = molecular target: T2, PRMT6; assay: radioactive assay (Reaction Biology Corp.), inhibition of PRMT6
# Experimental: as §4, §5
# [12] = molecular target: T4, PRMT4 (Homo sapiens, UniProt Q86X55); assay: radioactive assay (Reaction Biology Corp.), inhibition of PRMT4
# T4 sequence (Q86X55 1-608): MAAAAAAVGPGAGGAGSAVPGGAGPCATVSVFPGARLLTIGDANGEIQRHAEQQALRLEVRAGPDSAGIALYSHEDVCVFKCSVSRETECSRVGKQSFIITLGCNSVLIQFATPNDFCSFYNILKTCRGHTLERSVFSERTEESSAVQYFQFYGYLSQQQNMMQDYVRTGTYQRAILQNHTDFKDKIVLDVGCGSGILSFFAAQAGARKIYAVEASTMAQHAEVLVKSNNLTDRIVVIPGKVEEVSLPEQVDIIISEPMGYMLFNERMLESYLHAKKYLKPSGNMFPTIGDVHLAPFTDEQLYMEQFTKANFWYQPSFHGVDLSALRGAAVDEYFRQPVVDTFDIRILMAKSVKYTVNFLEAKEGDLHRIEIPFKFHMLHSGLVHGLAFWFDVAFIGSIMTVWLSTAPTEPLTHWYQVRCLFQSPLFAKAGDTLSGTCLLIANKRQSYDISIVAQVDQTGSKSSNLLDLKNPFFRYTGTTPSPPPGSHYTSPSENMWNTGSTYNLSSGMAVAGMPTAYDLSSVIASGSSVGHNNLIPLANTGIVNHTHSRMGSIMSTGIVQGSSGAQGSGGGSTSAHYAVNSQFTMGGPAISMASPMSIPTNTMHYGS
# Experimental: as §4, §5
# [13] = test system: PRMT4; assay: as above
# Experimental: as §4, §5
# [14] = test system: PRMT3; assay: SAHH-coupled fluorescence assay, inhibition of PRMT3; conditions: read-out: IC50 [µM] | PRMT3
# Experimental: A fluorescence-based SAHH-coupled assay was applied to study the inhibition activity of all synthesized compounds on PRMT 1 and 3.
# (§6) The PRMT3 methylation assay was performed under the following conditions in a final well volume of 100 μL: 20 mM Tris (pH=7.5), 0.01% Triton X-100, 5 μM SAHH, 0.25 μM PRMT3, 30 μM AdoMet, and 15 μM ThioGlo4. […] Fluorescence was monitored on a BMG CLARIOstar microplate reader with excitation 380 nm and emission 505 nm. Data were processed by using GraphPad Prism software 8.0. All experiments were performed in duplicate.
# as §4
# as §6, with “8.0.” for “8.0. All experiments were performed in duplicate.”
# T1 sequence (Q9NR22 whole entry, species assumed): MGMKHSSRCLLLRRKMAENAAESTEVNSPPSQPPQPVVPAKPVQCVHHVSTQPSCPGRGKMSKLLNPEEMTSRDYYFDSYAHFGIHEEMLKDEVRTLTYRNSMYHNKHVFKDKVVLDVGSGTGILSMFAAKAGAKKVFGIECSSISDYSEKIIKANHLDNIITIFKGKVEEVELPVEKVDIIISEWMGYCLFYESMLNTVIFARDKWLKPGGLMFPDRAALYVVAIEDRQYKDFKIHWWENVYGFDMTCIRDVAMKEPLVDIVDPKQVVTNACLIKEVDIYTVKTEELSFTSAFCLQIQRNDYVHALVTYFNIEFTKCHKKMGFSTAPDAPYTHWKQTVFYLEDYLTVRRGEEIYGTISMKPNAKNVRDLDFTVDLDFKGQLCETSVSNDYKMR
IC50 [1] [nM],IC50 [2] [nM],IC50 [3] [nM],IC50 [4] [nM],PRMT1 inhibition [5],IC50 [6] [nM],IC50 [7] [nM],IC50 [8] [nM],inhibition at 10 µM [9] [%],fold reduction of PRMT3 inhibition vs 1h ([9]; vs phenyl (1h)),inhibition at 10 µM [10] [%],inhibition at 10 µM [11] [%],inhibition at 10 µM [12] [%],IC50 [13] [nM],inhibition at 10 µM [5] [%],IC50 [14] [µM],fold reduction of PRMT3 inhibition vs YD1113 ([9]; vs YD1113),PRMT6 inhibition ([11]; 10 μM),Compound
24,25,2370,3.35,PRMT1 inhibitors,2760,1380,5570,,,,,,,,,,,N=C(NCCCSC[C@H]1O[C@@H](n2cnc3c(NCC#Cc4ccccc4)ncnc32)[C@H](O)[C@@H]1O)Nc1cccc(Br)c1 [YD1-248]
40,25,3620,14,PRMT1 inhibitors,1680,1790,> 30000,,,,,,,,,,,N=C(NCCCSC[C@H]1O[C@@H](n2cnc3c(NCc4cn(Cc5ccccc5)nn4)ncnc32)C(O)[C@H]1O)Nc1cccc(Br)c1 (stereo in doubt) [YD1-254]
38,44,1640,7.6,PRMT1 inhibitors,203,136,2640,,,,,,,,,,,N=C(NCCCSC[C@H]1O[C@@H](n2cnc3c(NCC#Cc4ccc(O)cc4)ncnc32)C(O)[C@H]1O)Nc1cccc(Br)c1 (stereo in doubt) [YD1-250]
,,,,,,,,1,over 40 fold,5,2,88,470 ± 120,13,81 ± 17,,,"Nc1ncnc2c1ncn2[C@@H]1O[C@H](CSCCNC(=O)Nc2cccc3ccccc23)[C@@H](O)[C@H]1O [Compound 7l, 1-(2-((((2S,3S,4R,5R)-5-(6-amino-9H-purin-9-yl)-3,4-dihydroxytetrahydrofuran-2-yl)methyl)thio)ethyl)-3-(naphthalen-1-yl)urea]"
,,,,,,,,62,,8,25,95,270 ± 60,6,5.9 ± 1.4,over 10 fold,inactive to PRMT6,"Nc1ncnc2c1ncn2[C@@H]1O[C@H](CSCCNC(=O)NCc2ccc(F)cc2)[C@@H](O)[C@H]1O [Compound 7d, 1-(2-((((2S,3S,4R,5R)-5-(6-amino-9H-purin-9-yl)-3,4-dihydroxytetrahydrofuran-2-yl)methyl)thio)ethyl)-3-(4-fluorobenzyl)urea]"
